Test results: US9101638B2, “Boronic acid derivatives and therapeutic uses thereof” (Rempex Pharmaceuticals, Inc., priority 2013, dated 2015)
Like-named read-outs stand apart in the source and are kept apart here.

Assays:
[1] = test system: ec302 (TEM-10); assay: Potentiation of aztreonam, strain ec302; type: cell-based
[2] = test system: KP1005 (CTX-M-14); assay: Potentiation of aztreonam, strain KP1005; type: cell-based
[3] = test system: EC1010 (CMY-6); assay: Potentiation of aztreonam, strain EC1010; type: cell-based
[4] = target: SHV-12 (Klebsiella pneumoniae, UniProt P0AD64, E235K/G234S/L31Q); assay: Inhibition of nitrocefin cleavage by purified SHV-12; type: biochemical; conditions: nitrocefin reporter substrate, purified enzyme; read-out: Ki (SHV-12, NCF)
Protocol: Purified enzymes were mixed with various concentrations of inhibitors in reaction buffer and incubated for 10 min at room temperature. Nitrocefin was added and substrate cleavage profiles were recorded at 490 nm every 10 sec for 10 min.

[5] = test system: ec308 (SHV-5); assay: Potentiation of tigemonam, strain ec308; type: cell-based; conditions: minimum BLI concentration inhibiting growth with 4 μg/mL tigemonam
[6] = test system: PAM1154/KPC-2; assay: Biapenem potentiation in PAM1154/KPC-2 (MexAB-OprM lacking); type: cell-based, Pseudomonas aeruginosa
Protocol: (§1) Efflux of BLIs from Pseudomonas aeruginosa by the MexAB-OprM efflux pump was also evaluated. […] Due to expression of KPC-2 both strains became resistant to biapenem. […] Potency of BLIs to potentiate biapenem in these strains was determined. […] The ratio of MPC64 values for each BLI in PAM1032/KPC-2 (efflux proficient) and PAM1154/KPC-2 (efflux deficient) was determined to generate the Efflux Index (EI).

[7] = test system: KP1009 (CTX-M-15); assay: Potentiation of aztreonam, strain KP1009; type: cell-based
[8] = test system: KP1009 (CTX-M-15); assay: Potentiation of tigemonam, strain KP1009; conditions: minimum BLI concentration inhibiting growth with 4 μg/mL tigemonam
[9] = test system: PAM1032/KPC-2; assay: Biapenem potentiation in PAM1032/KPC-2 (MexAB-OprM overexpressed); type: cell-based, Pseudomonas aeruginosa; conditions: BLI potency to decrease biapenem MIC 64-fold, 32 to 0.5 μg/ml; efflux proficient strain
Protocol: as §1

[10] = test system: KP1004 (K-2); assay: Potentiation of aztreonam, strain KP1004; type: cell-based; conditions: for AZT MPC4 K-2 KP1004: minimum BLI concentration inhibiting growth with 4 μg/mL aztreonam
[11] = test system: ec302 (TEM-10); assay: Potentiation of tigemonam, strain ec302; type: cell-based
[12] = test system: ECL1002; assay: Potentiation of aztreonam, strain ECL1002; type: cell-based; conditions: minimum BLI concentration inhibiting growth with 4 μg/mL aztreonam
[13] = test system: ec308 (SHV-5); assay: Potentiation of aztreonam, strain ec308; type: cell-based; conditions: for AZT MPC4 SHV-5 ec308: minimum BLI concentration inhibiting growth with 4 μg/mL aztreonam
[14] = test system: EC1010 (CMY-6); type: cell-based
[15] = minimum BLI concentration inhibiting growth with 4 μg/mL aztreonam

Chain of SHV-12 (P0AD64 22-286 L31Q/G234S/E235K): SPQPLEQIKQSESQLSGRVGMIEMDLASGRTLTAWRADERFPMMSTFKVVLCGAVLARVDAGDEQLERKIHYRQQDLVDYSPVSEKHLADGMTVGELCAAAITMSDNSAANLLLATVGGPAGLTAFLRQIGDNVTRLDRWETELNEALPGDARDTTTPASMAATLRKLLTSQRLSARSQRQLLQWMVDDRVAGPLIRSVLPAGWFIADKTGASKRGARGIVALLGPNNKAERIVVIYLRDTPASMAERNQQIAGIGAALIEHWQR

O=C(CSC(F)(F)F)N[C@H]1Cc2cccc(C(=O)O)c2OB1O [Compound 1, (R)-2-hydroxy-3-(2-(trifluoromethylthio)acetamido)-3,4-dihydro-2H-benzo[e][1,2]oxaborinine-8-carboxylic acid]
AZT MPC4 TEM-10 ec302 [1, 15]: Y (Y = MIC of 1 μg/mL to 10 μg/mL)
AZT MPC4 CTX-M-14 KP1005 [2, 15]: Y (Y = MIC of 1 μg/mL to 10 μg/mL)
AZT MPC4 CMY-6 EC1010 [3, 15]: Y (Y = MIC of 1 μg/mL to 10 μg/mL)
Ki [4]: < 1 nM
TIG MPC4 SHV-5 ec308 [5]: X (X = MIC of less than 1 μg/mL)
PAM1154/KPC-2 Biapenem MPC64 [6]: X (key: X = Less than 10; Y = 10 to 40; Z Greater than 40)
AZT MPC4 CTX-M-15 KP1009 [7, 15]: Y (Y = MIC of 1 μg/mL to 10 μg/mL)
TIG MPC4 CTX-M-15 KP1009 [8]: Y (Y = MIC of 1 μg/mL to 10 μg/mL)
PAM1032/KPC-2 Biapenem MPC64 [9]: Z (Z Greater than 40)
AZT MPC4 K-2 KP1004 [10]: Y (Y = MIC of 1 μg/mL to 10 μg/mL)
TIG MPC4 TEM-10 ec302 [11]: Z (key: X = MIC of less than 1 μg/mL; Y = MIC of 1 μg/mL to 10 μg/mL; Z = MIC of greater than 10 μg/mL)
AZT MPC4 ECL1002 [12]: Y (Y = MIC of 1 μg/mL to 10 μg/mL)
AZT MPC4 SHV-5 ec308 [13]: X (X = MIC of less than 1 μg/mL)
TIG MPC4 CMY-6 EC1010 ([14]; minimum BLI concentration inhibiting growth with 4 μg/mL tigemonam): X (X = MIC of less than 1 μg/mL)

C[C@H]1[C@H](NC(=O)/C(=N\OC(C)(C)C(=O)O)c2csc(N)n2)C(=O)N1S(=O)(=O)O [Aztreonam, reference compound]
MIC ([1]; read-out: Aztreonam MIC): 128 µg/mL
MIC ([2]; read-out: Aztreonam MIC): > 128 µg/mL
MIC ([3]; read-out: Aztreonam MIC): > 128 µg/mL
MIC ([7]; read-out: Aztreonam MIC): > 128 µg/mL
MIC ([10]; read-out: Aztreonam MIC): > 128 µg/mL
MIC ([13]; read-out: Aztreonam MIC): > 128 µg/mL

Cn1nnnc1SCC(=O)N[C@H]1Cc2cccc(C(=O)O)c2OB1O [Compound 2, (R)-2-hydroxy-3-(2-(1-methyl-1H-tetrazol-5-ylthio)acetamido)-3,4-dihydro-2H-benzo[e][1,2]oxaborinine-8-carboxylic acid]
AZT MPC4 TEM-10 ec302 [1]: Y (key: X = MIC of less than 1 μg/mL; Y = MIC of 1 μg/mL to 10 μg/mL; Z = MIC of greater than 10 μg/mL)
AZT MPC4 CTX-M-14 KP1005 [2]: X (key: X = MIC of less than 1 μg/mL; Y = MIC of 1 μg/mL to 10 μg/mL; Z = MIC of greater than 10 μg/mL)
AZT MPC4 CMY-6 EC1010 [3]: Y (key: X = MIC of less than 1 μg/mL; Y = MIC of 1 μg/mL to 10 μg/mL; Z = MIC of greater than 10 μg/mL)
Ki [4]: < 1 nM
TIG MPC4 SHV-5 ec308 [5]: X (X = MIC of less than 1 μg/mL)
PAM11154/KPC-2 Biapenem MPC64 ([6]; BLI potency to decrease biapenem MIC 64-fold, 32 to 0.5 μg/ml, efflux deficient strain): Y (Y = 10 to 40)
AZT MPC4 CTX-M-15 KP1009 [7]: Y (key: X = MIC of less than 1 μg/mL; Y = MIC of 1 μg/mL to 10 μg/mL; Z = MIC of greater than 10 μg/mL)
TIG MPC4 CTX-M-15 KP1009 [8]: Y (Y = MIC of 1 μg/mL to 10 μg/mL)
PAM1032/KPC-2 Biapenem MPC64 [9]: Z (Z Greater than 40)
AZT MPC4 K-2 KP1004 [10]: Y (Y = MIC of 1 μg/mL to 10 μg/mL)
TIG MPC4 TEM-10 ec302 [11]: Y (key: X = MIC of less than 1 μg/mL; Y = MIC of 1 μg/mL to 10 μg/mL; Z = MIC of greater than 10 μg/mL)
AZT MPC4 ECL1002 [12]: Y (Y = MIC of 1 μg/mL to 10 μg/mL)
AZT MPC4 SHV-5 ec308 [13]: X (X = MIC of less than 1 μg/mL)
TIG MPC4 CMY-6 EC1010 [14]: X (key: X = MIC of less than 1 μg/mL; Y = MIC of 1 μg/mL to 10 μg/mL; Z = MIC of greater than 10 μg/mL)
